Results taken from patent US6365634B1, “Naturally occurring compounds and their derivatives as cyclooxygenase 2 and/or 5-lipoxygenase inhibitors” (C-P Technology Limited Partnership, priority 1997, dated 2002).

Assays:
human keratinocytes [1] = assay: Microscopic examination of treated keratinocyte cultures; format: cell-based
[2] = target: T1, rabbit reticulocyte 15-LO (Oryctolagus cuniculus, UniProt P12530); assay: 15-LO biochemical assay (15-HETE formation, TLC quantitation); settings: for Percent Inhibition of 15-LO: negative = increased activity
T1 construct: 24.5 units of a rabbit reticulocyte 15-LO preparation; tissue Oxford Biochemicals; host or cells: rabbit reticulocytes
T1 sequence (P12530 1-663): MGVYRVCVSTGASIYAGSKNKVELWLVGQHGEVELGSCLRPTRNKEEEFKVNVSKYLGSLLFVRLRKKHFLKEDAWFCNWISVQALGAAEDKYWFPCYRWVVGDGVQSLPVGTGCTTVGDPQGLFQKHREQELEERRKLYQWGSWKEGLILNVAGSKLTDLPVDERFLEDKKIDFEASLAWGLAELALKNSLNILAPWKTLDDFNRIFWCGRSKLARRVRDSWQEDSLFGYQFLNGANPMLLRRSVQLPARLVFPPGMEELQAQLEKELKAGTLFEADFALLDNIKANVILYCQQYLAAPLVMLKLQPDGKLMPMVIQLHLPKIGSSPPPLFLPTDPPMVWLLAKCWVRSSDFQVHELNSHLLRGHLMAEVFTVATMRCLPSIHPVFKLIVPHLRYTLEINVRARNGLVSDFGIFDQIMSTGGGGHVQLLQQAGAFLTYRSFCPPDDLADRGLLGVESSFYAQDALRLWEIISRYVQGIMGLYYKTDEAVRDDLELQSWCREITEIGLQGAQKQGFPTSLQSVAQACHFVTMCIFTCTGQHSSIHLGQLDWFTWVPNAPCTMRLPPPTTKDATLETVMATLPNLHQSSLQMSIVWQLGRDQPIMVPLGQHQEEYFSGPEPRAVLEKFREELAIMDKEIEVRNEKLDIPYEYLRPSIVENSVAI
Protocol: The inhibitory activity of dehydroabietic acid methyl ester was assessed by performing biochemical assays that utilized 1) human recombinant COX II, 2) ovine COX I, and 3) rabbit reticulocyte 15-LO. In all biochemical assays dehydroabietic acid methyl ester and inhibitory control compounds were used at a final concentration of […]. The COX I and II biochemical assays have been previously described in this document (see COX I and II Assays Used to Test X-8 Fractions and Purified Compounds, Example 3). The 15-LO assay was done using a modified version of a previously reported method (Corey, E. J., Shih, C., and Cashman, J. R. (1983) Proc. Natl. Acad. Sci. v80, p3,581; Sigal, E., Grunberger, D., Cashman, J. R., Craik, C. S., Caughey, G. H., and Nadel, J. A. (1988) Biochem. Biophys. Res Comm. v150(1), p376). Briefly, 24.5 units of a rabbit reticulocyte 15-LO preparation (corresponding to 7 ug total protein)(Oxford Biochemicals) was placed in potassium phosphate buffer (10 mM, pH 6.0). Dehydroabietic acid methyl ester was added to give a final concentration of 250 uM. The reaction was initiated by the addition of ^3H-AA (50 uM final concentration) and maintained at 37° C., for 5 min. The reaction was stopped by the addition of ice-cold methanol containing NaCNBH3 (to reduce peroxides). A portion of each reaction solution was then separated via TLC (250 μm PK6F 60 Å silica gel preparative TLC plate, Whatman), co-spotted with AA and 15-HETE (a metabolic product of 15-LO) and developed in hexane/ether/acetic acid (50:50:1) to separate 15-HETE from AA (Rf=0.29 and 0.5, respectively). Bands on the TLC plates were then visualized by I2 and scraped for quantitation. As with the COX I and II assays, percent inhibition was calculated based on a comparison between incubations performed in the presence and absence of dehydroabietic acid methyl ester (see “Fractionation and Bioassay Analysis of Fractions Derived from Extract-8” above).

human keratinocytes [3] = assay: Lactate dehydrogenase (LDH) release toxicity assay; format: cell-based; settings: highest value of any culture treated with 5, 1.0, 0.2 or 0.04 uM
Protocol: To address the possibility that the inhibition of both PGE2 and LTB4 production by human keratinocytes treated with dehydroabietic acid methyl ester was […], a cell lactate dehydrogenase toxicity assay (Fisher Scientific) was performed. Briefly, lactate dehydrogenase (LDH) is found intracellularly and is released only in response to toxic stimuli and/or cell death. The amount of LDH released into the media of cultured cells is indicative of the degree of toxicity occurring in that culture. To do the assay, 48-well plates of cultured human keratinocytes (as described above for the PGE2 assay) were prepared and treated with the same concentrations of dehydroabietic acid methyl ester as described above for the PGE2 and LTB4 assays. One hour prior to harvesting culture media samples from wells treated with dehydroabietic acid methyl ester, duplicate wells were treated with a cell lysis buffer (Fisher Scientific) that caused 100% cell death to occur in the treated wells. After culture media samples were collected from all wells, the amount of LDH present in each was determined using a colorometric assay (Fisher Scientific). […] The amount of LDH released into the media of cultures treated with dehydroabietic acid methyl ester as well as vehicle-control media was determined using the colorometric assay and expressed as a percentage of that released by the 100% cell death wells.
To address the possibility that the inhibition of PGE2 production by human keratinocytes treated with 4-cumylphenol was due to toxicity, a cell lactate dehydrogenase toxicity assay (Fisher Scientific) was performed. […] After culture media samples were collected from all wells, the amount of LDH present in each was determined using a colorometric assay (Fisher Scientific). […] The amount of LDH released into the media of cultures treated with dehydroabietic acid methyl ester as well as vehicle-control media was determined using the colorometric assay and expressed as a percentage of that released by the 100% cell death wells. […]

SMILES	toxicity when treated cultures were examined microscopically (human keratinocytes [1])	increase of the enzymatic activity of 15-LO ([2]; 250 uM)	Percent Inhibition of 15-LO ([2]; final concentration of 250 uM)	percent toxicity (LDH released) versus the 100% cell death control (human keratinocytes [3])	Percent Inhibition of 15-LO ([2]; pure 4-cumylphenol, concentration not given)
COC(=O)[C@]1(C)CCC[C@]2(C)c3ccc(C(C)C)cc3CC[C@@H]12 [Dehydroabietic acid methyl ester, dehydroabietic acid methyl ester]	lack of toxicity	over 93%	−93.6%	≤ 12%	
CC(C)(c1ccccc1)c1ccc(O)cc1 [4-Cumylphenol, 4-cumylphenol]	lack of toxicity			≤ 12.7%	−40.0%
